According to patent US10945992B1, “Dosage forms of rofecoxib and related methods” (Tremeau Pharmaceuticals, Inc., priority 2019, dated 2021):
Like-named read-outs stand apart in the source and are kept apart here.

Test: TRM-201-PK-102 single-dose four-period crossover pharmacokinetic study, fasted healthy subjects
Assay type: in vivo, human
Conditions: for geometric mean ratio AUC0-∞ to historical data for the 25 mg VIOXX product / geometric mean ratio Cmax to historical data for the 25 mg VIOXX product: sensitivity analysis; for AUC(0-inf) / Cmax: human, plasma, oral
Experimental: A Single-Dose, Open-Label, Phase 1, Four-Period Crossover Pharmacokinetic Study of TRM-201 (Rofecoxib) 12.5 mg, 17.5 mg, 20 mg and 25 mg Administered to Healthy Subjects in a Fasting State, with Comparison to Historical Pharmacokinetic Parameters of Previously Marketed Rofecoxib (“TRM-201-PK-102” or “102 PK Study”)
This was a single-center, open-label four-period crossover PK study of TRM-201. The study included 24 subjects who received TRM-201 as a single dose of 12.5 mg, 17.5 mg, 20 mg and 25 mg to assess the PK of TRM-201 in healthy volunteers under fasted conditions. Subjects were randomized to one of four treatment sequences. The PK data from the current study along with the data from the TRM-201-PK-101 study (Example 4) was used to compare to historical pharmacokinetic parameters of previously marketed rofecoxib, all in a fasted state.
In each of the four dosing periods, subjects fasted overnight for at least 10 hours before study drug dosing. While fasting, subjects had nothing to eat and only water to drink. Water was permitted as desired, except for the period between 1 hour before and 1 hour after study drug dosing (excepting as permitted for dosing). After the 2-hour PK blood sample, subjects were allowed one 250-mL cup of clear apple juice. After the 4-hour PK blood sample, subjects were served a light lunch. Following the light lunch, subjects received standardized meals according to the clinic's standard procedures that were scheduled at consistent times and at least 15 minutes before or 15 minutes after PK sampling time points. Blood was withdrawn for PK analysis at predefined time points. For each dosing period the last time point was 120 hours after dosing with study drug (Day 6). After the 120 hour PK sample, the EOP procedures was completed, subjects remained in-clinic for the in-between dose period day (Days 7, 14, and 21) and began the next dosing period starting with an overnight fast for at least 10 hours on Day −1 of the subsequent dosing period. Pharmacokinetic and safety endpoints were evaluated.
The study drug, TRM-201, was an immediate-release tablet that contained 12.5 mg rofecoxib, 17.5 mg rofecoxib, 20 mg rofecoxib or 25 mg rofecoxib. The 7.25-mm diameter tablets were off-white, round, and uncoated with no markings. TRM-201 tablets were for oral administration.
For each sample, approximately 3 mL of blood were drawn. The samples were obtained by a straight stick or via an in-dwelling intravenous (IV) catheter in a forearm vein. Additional details for the collection, processing, storage, and shipping of PK samples were provided in the study manual.
Pharmacokinetic samples will be analyzed using a validated assay for rofecoxib in human plasma. Assay results and validation details will be provided in a separate bioanalytical report. The following PK parameters for rofecoxib will be calculated as primary endpoints using standard noncompartmental methods: AUC0-∞ and Cmax. Secondary endpoints include Tmax, and t1/2. Additional PK parameters (e.g., CL/F, and Vd/F) will also be calculated using standard noncompartmental methods.
Individual plasma concentrations for rofecoxib and PK sampling time deviation data will be presented in a data listing. Plasma concentration data will be summarized by time point using the following descriptive statistics: number of subjects, arithmetic mean, SD, coefficient of variation (CV), geometric mean, natural-log-scale SD, geometric CV, median, minimum, and maximum. Individual plasma concentration versus actual time profiles were presented on both linear and semilogarithmic scales. Additionally, arithmetic mean concentration versus scheduled time profiles were presented on linear scales and geometric means on semilogarithmic scales.
The PK parameters of rofecoxib were analyzed based on the actual sampling times. […]

For CS(=O)(=O)c1ccc(C2=C(c3ccccc3)C(=O)OC2)cc1 [TRM-201, 4-[4-(methylsulfonyl)phenyl]-3-phenyl-2(5H)-furanone], the arithmetic mean plasma concentration (17.5 mg, 15 minutes) was 2.42 ng/mL, the arithmetic mean plasma concentration (17.5 mg, 45 minutes) was 93 ng/mL and the “geometric mean ratio AUC0-∞ to historical data for the 25 mg VIOXX product” value (TRM-201 17.5 mg) was 0.819. The “geometric mean ratio Cmax to historical data for the 25 mg VIOXX product” value (TRM-201 17.5 mg) was 1.03, the “geometric mean ratio AUC0-∞ to historical data for the 25 mg VIOXX product” value (TRM-201 20 mg) was 0.934 and the “geometric mean ratio Cmax to historical data for the 25 mg VIOXX product” value (TRM-201 20 mg) was 1.19. For the same compound, the AUC(0-inf) (female, 12.5 mg, 102 study, females, read-out: arithmetic mean AUC0-∞) was 2240 ng·h/mL, the Cmax (female, 12.5 mg, 102 study, females, read-out: arithmetic mean Cmax) was 168 ng/mL and the AUC(0-inf) (female, 12.5 mg, 102 study, females, read-out: geometric mean AUC0-∞) was 2170 ng·h/mL. For the same compound, the Cmax (female, 12.5 mg, 102 study, females, read-out: geometric mean Cmax) was 160 ng/mL, the AUC(0-inf) (female, 17.5 mg, 102 study, females, read-out: arithmetic mean AUC0-∞) was 3650 ng·h/mL and the Cmax (female, 17.5 mg, 102 study, females, read-out: arithmetic mean Cmax) was 266 ng/mL. For the same compound, the AUC(0-inf) (female, 17.5 mg, 102 study, females, read-out: geometric mean AUC0-∞) was 3490 ng·h/mL, the Cmax (female, 17.5 mg, 102 study, females, read-out: geometric mean Cmax) was 251 ng/mL and the AUC(0-inf) (female, 20 mg, 102 study, females, read-out: arithmetic mean AUC0-∞) was 4270 ng·h/mL. It also gave a Cmax (female, 20 mg, 102 study, females, read-out: arithmetic mean Cmax) of 314 ng/mL, an AUC(0-inf) (female, 20 mg, 102 study, females, read-out: geometric mean AUC0-∞) of 4160 ng·h/mL and a Cmax (female, 20 mg, 102 study, females, read-out: geometric mean Cmax) of 293 ng/mL. It also gave an AUC(0-inf) (female, 25 mg, 102 study, females, read-out: arithmetic mean AUC0-∞) of 5090 ng·h/mL, a Cmax (female, 25 mg, 102 study, females, read-out: arithmetic mean Cmax) of 388 ng/mL and an AUC(0-inf) (12.5 mg, 102 study only, read-out: arithmetic mean AUC0-∞) of 2010 ng·h/mL. The Cmax (12.5 mg, 102 study only, read-out: arithmetic mean Cmax) was 151 ng/mL, the AUC(0-inf) (12.5 mg, 102 study only, read-out: geometric mean AUC0-∞) was 1880 ng·h/mL and the Cmax (12.5 mg, 102 study only, read-out: geometric mean Cmax) was 144 ng/mL. It also gave an AUC(0-inf) (12.5 mg, 102 study, 18-40 years, read-out: arithmetic mean AUC0-∞) of 1680 ng·h/mL, a Cmax (12.5 mg, 102 study, 18-40 years, read-out: arithmetic mean Cmax) of 164 ng/mL and an AUC(0-inf) (12.5 mg, 102 study, 18-40 years, read-out: geometric mean AUC0-∞) of 1570 ng·h/mL. It also gave a Cmax (12.5 mg, 102 study, 18-40 years, read-out: geometric mean Cmax) of 156 ng/mL, an AUC(0-inf) (12.5 mg, 102 study, 41-52 years, read-out: arithmetic mean AUC0-∞) of 2090 ng·h/mL and a Cmax (12.5 mg, 102 study, 41-52 years, read-out: arithmetic mean Cmax) of 140 ng/mL. The AUC(0-inf) (12.5 mg, 102 study, 41-52 years, read-out: geometric mean AUC0-∞) was 1880 ng·h/mL, the Cmax (12.5 mg, 102 study, 41-52 years, read-out: geometric mean Cmax) was 133 ng/mL and the AUC(0-inf) (12.5 mg, 102 study, 53-60 years, read-out: arithmetic mean AUC0-∞) was 2270 ng·h/mL. The Cmax (12.5 mg, 102 study, 53-60 years, read-out: arithmetic mean Cmax) was 150 ng/mL, the AUC(0-inf) (12.5 mg, 102 study, 53-60 years, read-out: geometric mean AUC0-∞) was 2240 ng·h/mL and the Cmax (12.5 mg, 102 study, 53-60 years, read-out: geometric mean Cmax) was 143 ng/mL. The AUC(0-inf) (12.5 mg, 102 study, Black or African-American subjects, read-out: arithmetic mean AUC0-∞) was 1660 ng·h/mL, the Cmax (12.5 mg, 102 study, Black or African-American subjects, read-out: arithmetic mean Cmax) was 143 ng/mL and the AUC(0-inf) (12.5 mg, 102 study, Black or African-American subjects, read-out: geometric mean AUC0-∞) was 1590 ng·h/mL. For the same compound, the Cmax (12.5 mg, 102 study, Black or African-American subjects, read-out: geometric mean Cmax) was 142 ng/mL, the AUC(0-inf) (12.5 mg, 102 study, Hispanic or Latino subjects, read-out: arithmetic mean AUC0-∞) was 2210 ng·h/mL and the Cmax (12.5 mg, 102 study, Hispanic or Latino subjects, read-out: arithmetic mean Cmax) was 157 ng/mL. The AUC(0-inf) (12.5 mg, 102 study, Hispanic or Latino subjects, read-out: geometric mean AUC0-∞) was 2090 ng·h/mL, the Cmax (12.5 mg, 102 study, Hispanic or Latino subjects, read-out: geometric mean Cmax) was 146 ng/mL and the AUC(0-inf) (12.5 mg, 102 study, White subjects, read-out: arithmetic mean AUC0-∞) was 2110 ng·h/mL. For the same compound, the Cmax (12.5 mg, 102 study, White subjects, read-out: arithmetic mean Cmax) was 153 ng/mL, the AUC(0-inf) (12.5 mg, 102 study, White subjects, read-out: geometric mean AUC0-∞) was 1960 ng·h/mL and the Cmax (12.5 mg, 102 study, White subjects, read-out: geometric mean Cmax) was 144 ng/mL. The AUC(0-inf) (12.5 mg, 102 study, body weight 47-70 kg, read-out: arithmetic mean AUC0-∞) was 1850 ng·h/mL, the Cmax (12.5 mg, 102 study, body weight 47-70 kg, read-out: arithmetic mean Cmax) was 175 ng/mL and the AUC(0-inf) (12.5 mg, 102 study, body weight 47-70 kg, read-out: geometric mean AUC0-∞) was 1690 ng·h/mL. The Cmax (12.5 mg, 102 study, body weight 47-70 kg, read-out: geometric mean Cmax) was 165 ng/mL, the AUC(0-inf) (12.5 mg, 102 study, body weight 70.1-77 kg, read-out: arithmetic mean AUC0-∞) was 2500 ng·h/mL and the Cmax (12.5 mg, 102 study, body weight 70.1-77 kg, read-out: arithmetic mean Cmax) was 155 ng/mL. For the same compound, the AUC(0-inf) (12.5 mg, 102 study, body weight 70.1-77 kg, read-out: geometric mean AUC0-∞) was 2420 ng·h/mL, the Cmax (12.5 mg, 102 study, body weight 70.1-77 kg, read-out: geometric mean Cmax) was 147 ng/mL and the AUC(0-inf) (12.5 mg, 102 study, body weight 77.1-90 kg, read-out: arithmetic mean AUC0-∞) was 1790 ng·h/mL.
